Non-standard residues stand in square brackets, D forms with d. Residues, ends and D or L forms follow the SMILES beside them. *: point of attachment. Nle = CCCC[C@H](N)C(=O)O; Cbz = O=C(OCc1ccccc1)*
Experiments:
hTERT [1] = test: hTERT protein levels by immunoblotting in H1299 cells; assay type: cell-based, human
Protocol: FIG. 1. hTERT is sensitive to the Hsp90 antagonist geldanamycin. (A) Down-regulation of ectopically expressed hTERT by GA. H1299 cells transfected with Flag-hTERT or Flag-TRF1 were treated with 0.1 μM GA for the indicated times. Lysates were resolved on 8% SDS-PAGE and analyzed by immunoblotting using an anti-Flag antibody probe. Cells were pretreated with 10 μM MG132 or E-64 for 2 hours, either alone or before treatment with GA. (B) Concentration dependence of GA on hTERT. H1299 cells transfected with Flag-hTERT or hTERT-HA were treated for 2 hours with the GA concentration indicated. The hTERT polypeptides were visualized with anti-Flag or anti-HA antibodies as marked by each blot. (C) Down-regulation of endogenous hTERT by GA. H1299 cells were treated with 0.1 μM GA for the indicated times, and cell lysates were analyzed by immunoprecipitation with anti-hTERT antibody followed by immunoblotting using same antibody probe. Cells were pretreated with 10 μM MG132 for 2 hours, either alone or before treatment with GA. Molecular weight markers are shown in kilodaltons. (D) H1299 cells were treated with 0.1 μM GA for the indicated times, and cell lysates were analyzed for telomerase activity by the TRAP assay. The lane labeled LB corresponds to the negative control (lysis buffer only). ITAS represents the internal telomerase assay standard. (E) Saos-2 cells transfected with Flag-hTERT or hTERT-HA or empty vector were untreated or treated with 0.1 μM GA for 16 hours, and cell lysates were analyzed for telomerase activity using the TRAP assay.
(§1) FIG. 2. hTERT is ubiquitinated prior to proteasome-mediated degradation. (A) H1299 cells were co-transfected with Flag-hTERT and HA-ubiquitin. Cells were either untreated or treated for 2 hours with 10 μg/ml ALLnN or 0.1 μM GA, or a combination of the two as specified above each lane. Immunoprecipitation was performed with anti-Flag antibody before probing with anti-hTERT or anti-HA antibodies as indicated besides each blot. Molecular weight markers are shown in kilodaltons. (B) H1299 cells co-transfected with Flag-hTERT and HA-ubiquitin were treated for 1 hour with the GA concentration indicated in the presence of 10 μM MG132. Immunoprecipitation was performed with anti-Flag antibody followed by immunoblotting using an anti-HA antibody probe. (C) H1299 cells co-transfected with Flag-hTERT and HA-ubiquitin were either untreated or treated for 2 hours with 10 μg/ml ALLnN as specified above each lane. Proteins were immunoprecipated with anti-Flag antibody followed by immunoblotting using an anti-HA antibody probe.
The human lung carcinoma cell line H1299 was cultured in RPMI-1640 medium, and the human fibrosarcoma cell line HT1080 was cultured in Dulbecco's modified Eagle's medium supplemented with 10% fetal bovine serum, 100 units/ml penicillin, and 100 μg/ml streptomycin in 5% CO2 at 37° C. The human osteosarcoma cell line Saos-2 was maintained in McCoy's 5A medium containing 15% fetal bovine serum, 100 units/ml penicillin, and 100 μg/ml streptomycin. To establish cell lines stably expressing MKRN1, the MKRN1-V5 construct was transfected into HT1080 cells using Lipofectamine Plus (Invitrogen, Carlsbad, Calif.) according to the manufacturer's instructions. As a control, HT1080 cells were also stably transfected with an empty vector. Multiple independent single clones were isolated and checked for protein expression by immunoblotting with anti-V5 antibody.
H1299 cells were transiently transfected with the expression vectors indicated in the figure legends using TransFast transfection reagent (Promega, Madison, Wis.) according to the manufacturer's instructions. Cells were lysed with buffer containing 0.5% NP-40, 50 mM Tris-HCl (pH 7.5), 150 mM NaCl, 2 mM phenyl methylsulphonyl fluoride. […]

hTERT [2] = test: Ubiquitination of hTERT in H1299 cells (immunoprecipitation, anti-HA immunoblot); assay type: cell-based, human
Protocol: as §1
FIG. 4. MKRN1 functions as an E3 ubiquitin-ligase for hTERT in vitro and in vivo. (A) HA-tagged hTERT (residues 946-1132) was incubated MKRN1 or mutants in the presence of E1, E2, His6-ubiquitin (6×His tag disclosed as SEQ ID NO: 7). Samples were resolved by 6% SDS-PAGE and analyzed by immunoblotting with an anti-HA antibody probe. (B) H1299 cells were co-transfected with Flag-hTERT, HA-ubiquitin, MKRN1-V5, and together with either MKRN1^H307E-V5 or MKRN1^Δ^C-V5 as specified. Cells were untreated or treated with 10 μM MG132 for 2 hours. Anti-Flag immunoprecipitates and cell lysates were analyzed by immunoblotting with anti-HA antibody and anti-V5 antibody probes, respectively. (C) H1299 cells co-transfected with Flag-hTERT and HA-ubiquitin, and together with or without MKRN1-V5 as indicated were treated with 10 μM MG132 for the indicated times. Anti-Flag immunoprecipitates and cell lysates were analyzed by immunoblotting with anti-HA antibody and anti-V5 antibody probes, respectively.
H1299 cells were transiently transfected with the expression vectors indicated in the figure legends using TransFast transfection reagent (Promega, Madison, Wis.) according to the manufacturer's instructions. Cells were lysed with buffer containing 0.5% NP-40, 50 mM Tris-HCl (pH 7.5), 150 mM NaCl, 2 mM phenyl methylsulphonyl fluoride. After centrifugation at 12,000 rpm for 30 min, the supernatants were immunoprecipitated for 2 hours with anti-Flag (Sigma, St. Louis, Mo.) or anti-HA (Santa Cruz biotechnology, Santa Cruz, Calif.) antibodies and then incubated with Sepharose beads conjugated to Protein G (Amersham Biosciences Inc., Piscataway, N.J.). When ubiquitin conjugates of hTERT were detected, immunoprecipitation was performed with lysis buffer containing 0.1% SDS to dissociate its interacting proteins. Immunoblot analyses were performed using anti-hTERT (Santa Cruz biotechnology, Santa Cruz, Calif.), anti-V5 (Invitrogen, Carlsbad, Calif.), anti-HA, and anti-Flag antibodies.
GA-mediated protein degradation by the proteasome depends on conjugation of ubiquitin to the Hsp90 client protein (Isaacs et al. 2002; Citri et al. 2002). To determine whether hTERT is ubiquitinated in vivo prior to its degradation, H1299 cells co-transfected with Flag-tagged hTERT and HA-tagged ubiquitin constructs were treated with GA, ALLnN (a general proteasome inhibitor) or both. The immunoprecipitated products were evaluated by immunoblotting with selected probes as described in FIG. 2. […]

SMILES | effect on GA-induced degradation of endogenous hTERT (hTERT [1]; H1299, 10 μM MG132 pretreatment 2 hours before GA) | effect on GA-induced down-regulation of hTERT (hTERT [1]; H1299 Flag-hTERT, 10 μM pretreatment 2 hours, then GA 4 hours) | hTERT expression levels, inhibitor alone (hTERT [1]; H1299 Flag-hTERT, 10 μM, absence of GA, relative to untreated controls) | hTERT-ubiquitin conjugates without MKRN1 co-expression (hTERT [2]; H1299 Flag-hTERT plus HA-ubiquitin, 10 μM MG132, 45-60 minutes) | ubiquitin conjugates of hTERT (hTERT [2]; H1299 co-transfected with Flag-hTERT, HA-ubiquitin, MKRN1-V5, 10 μM MG132, 2 hours) | effect on GA-induced decrease of hTERT levels (hTERT [1]; H1299 Flag-hTERT and HA-ubiquitin, 10 μg/ml ALLnN plus 0.1 μM GA, 2 hours) | hTERT levels (hTERT [1]; H1299 co-transfected with Flag-hTERT and HA-ubiquitin, 2 hours, single agent (0.1 μM GA or 10 μg/ml ALLnN)) | polyubiquitinated hTERT forms in absence of GA (hTERT [2]; H1299, 10 μg/ml ALLnN, 2 hours, FIG. 2C) | ubiquitinated hTERT (hTERT [2]; H1299 Flag-hTERT and HA-ubiquitin, 10 μg/ml ALLnN, 2 hours, FIG. 2A)
CC(C)C[C@@H](C=O)NC(=O)[C@H](CC(C)C)NC(=O)[C@H](CC(C)C)NC(=O)OCc1ccccc1 [MG132] (Cbz-Leu-Leu-Leu-aldehyde) | rescued | rescued | did not cause a significant change | low levels were detected | easily detected |  |  |  | 
CCCC[C@@H](C=O)NC(=O)[C@H](CC(C)C)NC(=O)[C@H](CC(C)C)NC(C)=O [ALLnN] (Ac-Leu-Leu-[Nle]-aldehyde) |  |  |  |  |  | reversed this trend | did not affect | significantly elevated | dramatically elevated
